Measurements reported in US9381186B2, “Substituted chroman derivatives, medicaments and use in therapy” (MEI Pharma, Inc., priority 2004, dated 2016).
Like-named read-outs stand apart in the source and are kept apart here.

Key:
[1] = test system: NFF (neonatal foreskin fibroblasts); assay: Cytotoxicity (MTT proliferation assay) against neonatal foreskin fibroblasts; format: cell-based, Human
Description: (§1) The normal cell line NFF (neonatal foreskin fibroblasts) was a gift from Dr. Peter Parsons (Queensland Institute of Medical Research). RK (rabbit kidney) cells were obtained from Miller Whalley (Macquarie University). Both cell lines were cultured in RPMI supplemented with 10% FCS (CSL, Australia), penicillin (100 U/ml), streptomycin ([…]), L-glutamine (2 mM) and sodium bicarbonate (1.2 g/L), and cultured at 37° C. in a humidified atmosphere of 5% CO2
(§2) IC50 values were determined for each cell line. Cells were seeded in 96-well plates at an appropriate cell density as determined from growth kinetics analysis and cultured for 5 days in the absence and presence of the test compounds. Cell proliferation was assessed after the addition of 20 μl of 3-4,5 dimethylthiazol-2,5-diphenyl tetrazolium bromide (MTT, 2.5 mg/ml in PBS, Sigma) for 3-4 hrs at 37° C. according to manufacturer's instructions. IC50 values were calculated from semi-log plots of % of control proliferation on the y-axis against log dose on the x-axis.

NCI-H460 = assay: MTT proliferation assay, NSC lung NCI-H460; format: cell-based; settings: Homo sapiens; NSC Lung NCI-H460, Table 2.2
Description: (§3) An cultures were supplemented with 10% FCS (CSL, Australia), penicillin (100 U/ml), streptomycin ([…]), L-glutamine (2 mM) and sodium bicarbonate (1.2 g/L), and cultured at 37° C. in a humidified atmosphere of 5% CO2. All cell lines were purchased from ATCC (Maryland, USA) except where noted.
as §2

HTB-138 = assay: MTT proliferation assay, glioma HTB-138; format: cell-based
Description: as §3, §2

[2] = test system: murine macrophages (RAW 264.7) stimulated with LPS; assay: Eicosanoid synthesis in LPS-stimulated RAW 264.7 macrophages; format: cell-based, mouse; settings: test compound 10 μM, LPS 50 ng/ml, 16 hrs; negative = inhibition
Description: The mouse macrophage cell line RAW 264.7 was cultured in DMEM supplemented with foetal calf serum (FCS), 2 mM glutamine and 50 U/ml penicillin/streptomycin. Subconfluent cells were detached from the flask by gentle scraping and 24-well plates seeded at 5×10^5 cells per well and allowed to adhere for 1 hr. Cells were then treated either test compound at a concentration of 10 μM (in 0.025% DMSO) or vehicle alone, and incubated for 1 hr. LPS 50 ng/ml (LPS—Sigma-Aldrich) was then added. After incubation for 16 hrs, culture media was collected and stored at −80° C. for ecosanoid measurements using enzyme immunometric assays (PGE2 and TXB2—Cayman Chemical).

HPAC = assay: MTT proliferation assay, pancreatic HPAC; format: cell-based; settings: Homo sapiens, Table 2.2
CCRF-CEM = assay: MTT proliferation assay, leukaemia (ALL) CCRF-CEM; format: cell-based; settings: Homo sapiens, Table 2.2
Description: as §3, §2

PC3 = assay: MTT proliferation assay, prostate PC3; format: cell-based; settings: Homo sapiens, PC-3
Description: as §3, §2

CP70 = assay: MTT proliferation assay, ovarian CP70; format: cell-based
MM200 = assay: MTT proliferation assay, melanoma MM200; format: cell-based
HT-29 = assay: MTT proliferation assay, colorectal HT-29; format: cell-based; settings: Homo sapiens; Colorectal HT-29, Table 2.2; read-out: IC50
Description: as §3, §2

MDA-MB-468 = assay: MTT proliferation assay, breast MDA-MB-468; format: cell-based; settings: Homo sapiens
NCI-H23 = assay: MTT proliferation assay, lung NCI-H23; format: cell-based; settings: Homo sapiens; Lung NCI-H23, Table 2.1; read-out: cytoxicity (IC50)
Description: as §3, §2

RK (rabbit kidney) cells = assay: Cytotoxicity (MTT proliferation assay) against rabbit kidney cells; format: cell-based; settings: Oryctolagus cuniculus; rabbit kidney cells
Description: as §1, §2

[3] = Oral pharmacokinetics in female BALB/c mice; format: in vivo, mouse; settings: female, BALB/c, mouse, serum, 50 mg/kg; oral; read-out: t1/2
Description: Compound No. 1 labelled above was prepared as homogenous suspensions in 1% CMC (m:v, water). The formulation was delivered orally by gavage to female BALB/c mice at a dosage of 50 mg/kg. Three animals were allocated to each timepoint (15 min, 30 min, 1 hr, 4 hr and 24 hr). At each respective timepoint, animals were euthanised by cervical dislocation and blood collected. The concentration of free compound was analysed by mass spectroscopy.

[4] = Glioma HTB-138, Table 2.2, read-out: IC50
[5] = Prostate PC3, Table 2.2, read-out: IC50
[6] = Ovarian CP70, Table 2.2, read-out: IC50
[7] = Melanoma MM200, Table 2.2, read-out: IC50
[8] = Breast MDA-MB-468, Table 2.2, read-out: IC50

Row | IC50 (NCI-H460) [µM] | IC50 (HTB-138; [4]) [µM] | IC50 (CCRF-CEM) [µM] | IC50 (PC3; [5]) [µM] | IC50 (MM200; [7]) [µM] | IC50 (HT-29) [µM] | IC50 (MDA-MB-468; [8]) [µM] | Compound | Percentage change in PGE2 synthesis compared with vehicle [2] [%] | Percentage change in TXB2 synthesis compared with vehicle [2] [%] | IC50 (HPAC) [µM] | IC50 (CP70; [6]) [µM] | further results
1 | – | – | – | – | – | – | – | N.N.[Cl][Pt][Cl] [Cisplatin, reference compound] | – | – | – | – | IC50 ([1]; non-transformed neonatal foreskin fibroblasts, read-out: IC50): 9 µM; IC50 ([1]; text says rabbit kidney cells, values are those of the NFF line of Table 1, read-out: degree of toxicity (IC50)): 9.9 µM
2 | 39.7 | 60.2 | 40.7 | 37.5 ± 0.4 | – | – | – | Cc1ccc(C2(O)c3ccc(O)cc3OCC2c2ccc(O)cc2)cc1 (stereo not shown) [Compound 10] | −23.1 | −7.1 | 50 | 27.5 | –
3 | > 100 | 86.3 | 95.4 | > 100 | 60.4 ± 9.2 | – | – | COc1ccc(C2(O)c3ccc(O)cc3OCC2c2ccc(O)cc2)cc1 (stereo not shown) [Compound 11] | −51.0 | −53.2 | > 100 | 52.7 ± 13 | –
4 | – | 47.7 | > 100 | 32.8 ± 4.7 | > 100 | 49.5 ± 32 | 63.5 ± 4.6 | COc1ccc(C2COc3cc(OC)ccc3C2(O)c2ccc(OC)cc2)cc1 (stereo not shown) [Compound 12] | −68.3 | −34.0 | 86.3 ± 67 | > 100 | –
5 | > 100 | > 100 | 90.2 | 74 ± 4 | 72.8 | – | > 100 | Oc1ccc(C2COc3cc(O)ccc3C2(O)c2ccccc2)cc1 (stereo not shown) [Compound 14] | −23.6 | −40.9 | > 100 | 61.3 | –
6 | > 100 | > 100 | 81.8 | > 100 | – | – | – | COc1cccc(C2(O)c3ccc(O)cc3OCC2c2ccc(O)cc2)c1 (stereo not shown) [Compound 15] | −38.3 | −58.4 | > 100 | 65 ± 1.9 | –
7 | 31.6 ± 4.9 | 33.7 | 16.6 | 28 ± 7.3 | 14.6 | – | – | COc1ccc(C2=C(c3ccc(O)cc3)COc3cc(O)ccc32)cc1 [Compound 27] | −84.2 | −86.1 | 27.6 ± 5.3 | 22.4 ± 0.7 | –
8 | 41.6 | 62.4 | > 100 | 49 ± 16 | 64 ± 74 | 29.4 ± 4.4 | 30.5 ± 4 | COc1ccc(C2=C(c3ccc(OC)cc3)c3ccc(OC)cc3OC2)cc1 [Compound 28] | −85.1 | −50.1 | 50.7 ± 35 | 62 ± 44 | –
9 | 43.5 ± 9.2 | 45.7 | 66.6 | 45 ± 4.9 | 33 ± 3 | – | > 100 | Oc1ccc(C2=C(c3ccccc3)c3ccc(O)cc3OC2)cc1 [Compound 30] | −60.7 | −62.6 | 41 ± 5.3 | 18 | –
10 | 76.3 | 94.6 | 51.5 ± 12 | 47 ± 8.4 | 27.2 ± 4.6 | > 100 | – | COc1cccc(C2=C(c3ccc(O)cc3)COc3cc(O)ccc32)c1 [Compound 31] | −41.4 | −48.3 | 34.6 | 53.4 | –
11 | 39.3 ± 7.7 | 29 ± 2 | 15.4 | 13 ± 0.6 | 12.6 ± 3.7 | 24.8 ± 3.9 | 9.2 ± 5.1 | COc1ccc(C2=C(c3ccc(O)cc3)COc3c2ccc(O)c3C)cc1 [Compound 32] | −71.1 | −34.4 | 35.8 | 17.7 ± 5.9 | –
12 | – | – | – | – | – | – | – | Oc1ccc(C2=Cc3ccc(O)cc3OC2)cc1 [Phenoxodiol, reference compound] | – | – | – | – | IC50 (NCI-H23): 8.3 ± 6.7 µM; IC50 (HTB-138; Glioma HTB-138, Table 2.1, read-out: cytoxicity (IC50)): 20.4 ± 17.5 µM; IC50 (RK (rabbit kidney) cells): > 150 µM; IC50 (MM200; read-out: cytoxicity (IC50)): 6.2 ± 4.5 µM; IC50 (PC3; Prostate PC3, Table 2.1, read-out: cytoxicity (IC50)): 9.1 ± 8 µM; IC50 (CP70; read-out: cytoxicity (IC50)): 11.1 ± 23.6 µM; half-life [3]: ~30 min; IC50 (MDA-MB-468; MDA-MB-468, read-out: cytoxicity (IC50)): 8.9 ± 4.8 µM
